In US4647552A, “Process for obtaining ready for fertilization sexual products from sexually mature fish” (Kozponti Valto-es Hitelbank Rt. Innovacios Alap, priority 1983, dated 1987):
Where a SMILES comes first, the peptide text is derived from it. [ ]: non-standard residue; d: D form. pGlu = O=C1CC[C@@H](C(=O)O)N1

Assays:
Format in all cases: in vivo
[1] = system: silver carp (Hypophthalmichthys molitrix Val.); experiment: Induced artificial propagation of silver carp; conditions: single dose of 100 μg if ripe for ovulation, or last of the 10 μg doses
Procedure: Sexually mature fish are selected from the stock and transported to the place of propagation. Sexes are segregated. Stage of ripening of sexual products is determined according to Example 1 and fish ripe for ovulation--including males--are treated with a single dose of 100 μg of decapeptide of formula (III). Fish not yet ripe for ovulation should be kept at the temperature of natural spawning and the above-mentioned compound should be administered in doses of 10 μg each, at least 2 but at most 10 times as long as the nucleus of egg cell moves from the centre to the periphery. The number of treatments depends on the actual stage of maturity of sexual products in comparison to the stage "ripe for ovulation". This process of ripening lasts at least 150, in extreme cases to 850, day-grades in the water temperature interval of 20°-26° C. Ovulation takes place 240-260 hour-grades after the administration of the last dose. Thereafter sexual products are stripped.

[2] = system: common carp (Cyprinus carpio L.); experiment: Induced artificial propagation of common carp; conditions: single dose of 70 μg if ripe for ovulation, or last of the 5 μg doses
Procedure: In any season of the year and at any temperature mature breeders are selected from the stock and transported to the place of propagation. Sexes are segregated and the stage of ripening of sexual products is determined according to Example 1. If fish are ripe for ovulation, a single dose of 70 μg of decapeptide of formula (III) is administered, including males. Fish not yet ripe for making ovulate should be kept at the temperature of natural spawning and the above-mentioned compound should be administered in doses of 5 μg each, at least 2 but at most 15 times as long as the nucleus of the egg cell moves from the centre to the periphery. The number of treatments depends on the actual stage of maturity of sexual products in comparison to the stage "ripe for ovulation". The process of ripening lasts at least 100 but most 750 day-grades in the temperature interval of 20°-24° C. Ovulation takes place 240-260 hour-grades after the administration of the last dose. Then sexual products are stripped in 40-60 minutes. cl EXAMPLE 3

[3] = system: perch [Perca fluviatilis L.]; experiment: Induced artificial propagation of perch; conditions: single dose of 20 μg if ripe for ovulation, or last of the 2 μg doses
Procedure: Mature fish are selected from a population and transported to the place of propagation. Maturity of sexual products is determined according to Example 1 but sexes are not segregated. Fish ripe for ovulation--includingmales--are treated with a single dose of 20 μg of decapeptide of formula (II). Fish not yet ripe for ovulation should be kept at the temperature of natural spawning and the above-mentioned compound should be administered in doses of 2 μg each at least 2 but at most 10 times as long as the nucleus of egg cell moves from the centre to the periphery. The number of treatments depends on the actual stage of maturity of sexual products in comparison to the stage "ripe for ovulation". The process of ripening lasts at least 100 day-grades, in extreme cases to 400 day-grades, in the water temperature-interval of 12°-16° C. Spawning takes place 24-36 hours after the administration of the last dose. Perch can be spawned easily in tanks; in such a case stripping of sexual products is not necessary.

[4] = system: sterlet (Acipenser ruthenus L.); experiment: Induced artificial propagation of sterlet; conditions: single dose of 70 μg if ripe for ovulation, or last of the 10 μg doses, injected
Procedure: From the population of a given habitat mature fish are selected and then transported to the place of propagation. Sexes are segregated and the stage of ripening of eggs from females is determined. Fish are considered to be ripe for ovulation if the nucleus is situated on the periphery of the egg cell. Sperms of males are not examined as in the population of a given habitat the sexual products of males and females are practically in the same stage of ripening. If fish are ripe for ovulation, decapeptide of formula (II) in a single dose of 70 μg each is injected into each fish, including males. If fish are not ripe for ovulation, they should be kept at the temperature of natural spawning and the above compound should be administered in doses of 10 μg each, at least 2 but at most 12 times as long as the nucleus moves from the centre to the periphery. The number of treatments depends on the actual stage of maturity of sexual products in comparison to the stage "ripe for ovulation". This process of ripening lasts at least 100 but at most 630 day-grades in the temperature interval of 12°-18° C. (Day-grade means number of days multiplied by the mean temperature of water used in the ripening period.) Ovulation takes place 24-32 hours after the administration of the last dose. Thereafter sexual products are obtained in 40-60 minutes.

[5] = system: horse mackerel (Trachurus trachurus L.); experiment: Induced artificial propagation of horse mackerel; conditions: single dose of 10 μg injected, water temperature 18°-24° C.
Procedure: From among horse mackerels caught alive from the Adriatic in November specimens having a length of at least 240 mm are transported to the place of propagation. (Fish of this size are already mature sexually.) The compound of formula (II) is injected into each fish in a single dose of 10 μg. Ovulation takes place in 24 hours at the water temperature of 18°-24° C. Sexual products are obtained in 2 hours. In case of horse mackerel the determination of stage of ripening and sex is unnecessary as ripe fish are at disposal in a practically unlimited quantity.

| Compound | Ovulation takes place after the administration of the last dose [1] | Ovulation takes place after the administration of the last dose [2] | Spawning takes place after the administration of the last dose [3] | Ovulation takes place after the administration of the last dose [4] | Ovulation takes place in [5] |
| --- | --- | --- | --- | --- | --- |
| CC(C)C[C@H](NC(=O)[C@H](Cc1c[nH]c2ccccc12)NC(=O)[C@@H](Cc1ccccc1)NC(=O)[C@H](Cc1ccc(O)cc1)NC(=O)[C@H](CO)NC(=O)[C@H](Cc1c[nH]c2ccccc12)NC(=O)[C@H](Cc1c[nH]cn1)NC(=O)[C@@H]1CCC(=O)N1)C(=O)N1CCC[C@H]1C(=O)NCC(N)=O [formula (III), Glp-His-Trp-Ser-Tyr-D-Phe-Trp-Leu-Pro-Gly-NH2] ([pGlu]HWSY[dF]WLPG-NH2) | 240-260 hour-grades | 240-260 hour-grades |  |  |  |
| CC(C)C[C@H](NC(=O)[C@@H](Cc1ccccc1)NC(=O)[C@H](Cc1ccc(O)cc1)NC(=O)[C@H](CO)NC(=O)[C@H](Cc1c[nH]c2ccccc12)NC(=O)[C@H](Cc1c[nH]cn1)NC(=O)[C@@H]1CCC(=O)N1)C(=O)N[C@@H](CCC(N)=O)C(=O)N1CCC[C@H]1C(=O)NCC(N)=O [formula (II), Glp-His-Trp-Ser-Tyr-D-Phe-Leu-Gln-Pro-Gly-NH2] ([pGlu]HWSY[dF]LQPG-NH2) |  |  | 24 to 36 h | 24 to 32 h | 24 h |
